Biological target: T1, TSDL (D-lactonase) (Thermothielavioides terrestris, UniProt G2R1T8)
T1 construct: gene THITE_2046186; 421 aa, about 45 kDa on SDS-PAGE; pET-28a(+) NcoI/XhoI, E. coli BL21(DE3), intracellular; used as whole cells
T1 sequence (G2R1T8 1-421): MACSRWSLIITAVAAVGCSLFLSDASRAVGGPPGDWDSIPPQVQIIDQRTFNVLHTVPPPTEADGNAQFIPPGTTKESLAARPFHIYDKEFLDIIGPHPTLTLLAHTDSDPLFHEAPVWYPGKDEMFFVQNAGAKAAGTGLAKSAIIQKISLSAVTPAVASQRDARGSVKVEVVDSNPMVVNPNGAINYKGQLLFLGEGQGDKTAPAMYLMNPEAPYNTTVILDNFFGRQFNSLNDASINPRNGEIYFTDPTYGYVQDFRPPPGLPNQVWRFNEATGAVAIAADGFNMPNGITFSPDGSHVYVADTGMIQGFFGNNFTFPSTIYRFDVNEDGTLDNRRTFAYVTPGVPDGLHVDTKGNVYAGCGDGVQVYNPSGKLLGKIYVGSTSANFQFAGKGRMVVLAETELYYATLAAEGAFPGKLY
Test: whole-cell hydrolysis of D,L-pantolactone, HPLC and chiral HPLC
Format: cell-based
Conditions: racemic D,L-pantolactone; recombinant E. coli (TSDL) whole cells; pH 7.0, 30 °C; 5% NH3·H2O for pH control

With `CC1(C)COC(=O)[C@@H]1O` [D-PL, D-pantolactone] the “whole-cell hydrolysis of D,L-pantolactone, HPLC and chiral HPLC” value was “The recombinant TSDL exhibited high hydrolysis activity and enantioselectivity toward D-PL”.

Source: article PMC8693235, “Biocatalytic kinetic resolution of D,L-pantolactone by using a novel recombinant D-lactonase” (RSC Advances, 2020)
